Values joined by “and” are separate entries in the source; they are usually repeats but may differ in a detail not shown here. Equal entries are not always repeated. Where two headings read alike, the source gives them in different places.
Tests used:
[1] = Plasma concentration and pharmacokinetics of MAOIs and NRIs; conditions: for Average Concentration: TCP plasma
From the text: As used herein, the phrase “controlled-release formulation time period” refers to the period of time during which an active agent in the formulation is released in a delayed but controlled fashion upon administration to a subject. An objective of controlled release is to avoid bioavailability peaks and valleys and achieve a prolonged time period where concentration of the formulation fluctuates in a narrow range. Another key objective is to lengthen the time period where the drug concentration remains above a target minimum concentration required for desired effectiveness.
As used herein, the term “half-life period” refers to the time period in which the initial concentration of a drug in the plasma is reduced by 50%.
As used herein, the term “effective plasma concentration time period” refers to a period of time during which an active agent is present in the plasma at an effective plasma concentration.

[2] = TCP postural hypotension: SBP drop from sitting to standing position; conditions: for Average Postural SBP Drop: sitting to standing
tyramine pressor effect [3] = conditions: for Average SBP increase: 40 mg of tyramine taken with a meal, TCP 20 mg, phenelzine 60 mg, brofaromine 100 mg, moclobemide 450 mg, selegiline 20 mg; for SBP increase with 40 mg of in-meal tyramine: atomoxetine 40 mg, nortriptyline 125 mg
Description: Thus, wherein the MAOI and the NRI are each administered with an NRI dosage sufficient to result in a blood pressure increase of less than about 20 mm HG in reaction to consuming about 40 mg or less, about 35 mg or less, about 30 mg or less, about 25 mg or less, about 20 mg or less, about 15 mg or less, about 10 mg or less, or about 5 mg or less of tyramine within the effective plasma concentration time period.
This study is designed to characterize the effects of PHZ on the responses to tyramine throughout the dosing interval when given alone, and with an inhibitor of NET to mitigate the potentiation of the tyramine pressor effect by PHZ.

tyramine pressor effect [4] = conditions: cited from earlier work
[5] = cited from earlier work
tyramine pressor effect [6] = conditions: with TCP; Pare et al., 1982; cited from earlier work
[7] = oral tyramine with food; VanDenBerg et al., 2003; cited from earlier work
tyramine pressor effect [8] = conditions: cited from earlier work; remark: listed apart in the source
rat heart = conditions: given before TCP; Dostert et al., 1994; cited from earlier work

Structure (SMILES): N[C@@H]1C[C@H]1c1ccccc1 (racemic) [TCP, tranylcypromine]
- time plasma concentration stays above minimum threshold of 25 ng/ml ([1]; 40 mg TCP dose, not extended release): 9 h
- average Cmax ([1]; TCP dose of 40 mg/d, immediate release formulation): approximately 230 ng/ml
- Average Concentration ([1]; 1 to 5 hours since dosing): 59.8 ng/mL
- Average Concentration ([1]; 7 to 10 hours since dosing): 17.5 ng/mL
- highest drop in postural systolic blood pressure ([2]; immediate release formulation): approximately 25 mm HG
- Average Postural SBP Drop ([2]; 1 to 5 hours since dosing): 9.6 mm HG
- Average Postural SBP Drop ([2]; 7 to 10 hours since dosing): 3.4 mm HG
- Average SBP increase (tyramine pressor effect [3]): 50.0 mm HG
- SBP increase with 40 mg of in-meal tyramine (tyramine pressor effect [3]; TCP without or with NRI: desipramine 100 mg): 50 mm HG

Structure (SMILES): CNCCC=C1c2ccccc2CCc2ccccc21 [nortriptyline]
- relationship between Tyramine-relative response and blood concentration (tyramine pressor effect [4]; FIG. 2): tyramine tolerance increases as the blood concentration of nortriptyline increases
- relation of tyramine sensitivity to plasma concentration (tyramine pressor effect [4]; depressed patients treated with amitriptyline, Ghose and Coppen, 1977): decrease in tyramine sensitivity correlated with plasma concentrations of nortriptyline
- Tyramine pressor effect (tyramine pressor effect [4]; in the presence of the NRI, Freyschuss et al., 1970): much more reduced

Structure (SMILES): CNCCCC1c2ccccc2C=Cc2ccccc21 [protriptyline]
- half-life ([5]; plasma, elimination): 60 to 90 h

Structure (SMILES): CN(C)CCC=C1c2ccccc2CCc2ccccc21 [amitriptyline]
- effect on sensitivity to intravenous tyramine (tyramine pressor effect [6]): reversed the increase in sensitivity to intravenous tyramine associated with administration of TCP

Structure (SMILES): C#CCN(C)[C@H](C)Cc1ccccc1 [Selegiline]
- Average SBP increase (tyramine pressor effect [3]): 4.2 mm HG
- half-life ([5]; plasma, elimination): approximately 10 hours

Structure (SMILES): NCCc1ccc(O)cc1 [tyramine]
- reduction in AUC with food, average [7]: 53%
- reduction of Cmax with food, on average [7]: 72%
- in-meal tyramine dose producing 30 mm SBP increase relative to fasting oral dose (tyramine pressor effect [8]; Gillman, 2011): 2 to 4 times

Structure (SMILES): CNCCCN1c2ccccc2CCc2ccccc21 [desipramine]
- reduction of sensitivity to TYR, average factor (increase of TYR dose which increases systolic blood pressure 30 mm Hg) (tyramine pressor effect [8]; 100 mg dose of desipramine, Chalon et al. 2003): 5 fold
- half-life ([5]; plasma, elimination): 12 to 30 h and 21 h

Structure (SMILES): NNCCc1ccccc1 [Phenelzine, phenelzine]
- SBP increase with 40 mg of in-meal tyramine (tyramine pressor effect [3]; PHZ without or with NRI: desipramine 100 mg): 12.1 mm HG
- reduction of fasting tyramine dose giving 30 mm Hg SBP increase (tyramine pressor effect [8]; PHZ 60 mg, Bieck and Antonin, 1989): 13 fold
- fasting tyramine dose which results in a 30 mm Hg increase in systolic blood pressure (tyramine pressor effect [8]; PHZ 60 mg, without drug 437 mg, Bieck and Antonin, 1989): 33 mg
- half-life ([5]; plasma, elimination): approximately 11.6 hours

Structure (SMILES): CCOc1ccccc1OC(c1ccccc1)C1CNCCO1 (centres unmarked) [reboxetine]
- effect on labelled tyramine levels in rat heart (rat heart): block the increased levels of labelled tyramine which accumulate in rat heart when given before TCP
- half-life ([5]; plasma, elimination): 13 h

Structure (SMILES): CNCC[C@@H](Oc1ccccc1C)c1ccccc1 [atomoxetine]
- half-life ([5]; among extensive metabolizers): approximately 5 hours
- half-life ([5]; among slow metabolizers): over 10 hours

— patent US12465611B2, “Compositions and methods for treatment of depression and other disorders” (priority 2019, dated 2025)
